We go through one compound from paper PMC6747015, “Structure–function study of a novel inhibitor of the casein kinase 1 family in Arabidopsis thaliana” (Plant Direct, 2019).

The target in one experiment is CKL1 (Arabidopsis thaliana, UniProt P42158). Put plainly: In vitro CKL1 kinase activity. It counts as biochemical. An excerpt:
Supplemental Figure3.InvitroCKL1 kinaseactivitywithAMI-331.

The subject of another experiment is PRR7. Put plainly: RT-qPCR of the CK1 downstream gene PRR7. It counts as in vivo, Arabidopsis. Conditions: 6 hr. How it is done: Arabidopsis Col‐0 seedlings that had been grown under constant light conditions for […] were immersed in 10 or 50 µM of the GSK‐3, SHAGGY‐related, and BIN2 kinase inhibitor Bikinin (SML0094, Sigma) (De Rybel et al., 2009), […], or DMSO as control for 6 hr. Three biological replicates were used for each assay. Harvested seedlings were frozen in liquid nitrogen and crushed with zirconia beads in a Tissue Lyser II, and RNA was isolated with Illustra RNAspin (25‐0500‐72, GE Healthcare). RT‐qPCR was performed as described previously (Nakamichi et al., 2010) using an Eco Real‐Time PCR System (Illumina). Gene expression was normalized against IPP2, and maximal values were set to 1. Primers for detecting IPP2, PRR7, GR60ox2, and CPD were described previously (De Rybel et al., 2009; Kamioka et al., 2016).
Because the ATSK family was identified by the molecular probe assay as potential targets of AMI‐331, even though the affinities between AMI‐331 and ATSKs were not as high as between AMI‐331 and CK1, we used the ATSK inhibitor Bikinin to determine if AMI‐331 treatment affects the expression of genes downstream of ATSKs (De Rybel et al., 2009). Four‐day‐old Arabidopsis seedlings grown under constant light conditions were treated with Bikinin or AMI‐331 for 6 hr, and mRNA extracted from seedlings samples was analyzed by RT‐qPCR.

The test system of another experiment is PRR5 and TOC1. Kind of experiment: PRR5 and TOC1 fusion protein accumulation by Western blotting. It counts as in vivo, Arabidopsis. The method, then:
Four‐day‐old seedlings grown under 12‐hr light/12‐hr dark (LD) conditions were transferred into a 96‐well plate with a dropper. Seedlings were treated with 20 µl of MS liquid containing 2% sucrose and AMI‐331 at 2, 10, or 50 µM with a final concentration of 5% (v/v) DMSO. As a control experiment, MS containing 2% sucrose and 5% DMSO was used to treat the seedlings. Seedlings were kept under constant light (L) or constant dark (D) for 24 hr, harvested, and kept frozen until proteins were extracted. Frozen samples were crushed with zirconia beads (Tomy ZB‐50) in a Tissue Lyser II (Qiagen). Detection of PRR5‐ and TOC1‐fusion proteins was performed using a 10%–20% gradient acrylamide gel (198‐15041, Wako) as previously described (Nakamichi et al., 2012). Anti‐FLAG antibody (F3165, Sigma) and anti‐VP antibody (ab4808, Abcam) were used to detect FLAG‐fusion and VP‐fusion proteins, respectively.
It had previously been shown that CKL4 phosphorylates PSEUDO‐RESPONSE REGULATOR 5 (PRR5), a clock‐associated transcription factor in vitro, and that treatment with the CK1 inhibitor PHA767491 results in over‐accumulation of PRR5 in vivo (Uehara et al., 2019). As a further test of whether the period‐lengthening activity of AMI‐331 is related to the inhibition of CK1 in vivo, we measured the amounts of PRR5 in plants treated with AMI‐331. Seedlings expressing fusion protein PRR5‐FLAG under control of the cauliflower mosaic virus 35S promoter (35Spro:PRR5‐FLAG) were grown under constant light conditions for 4 days, treated with AMI‐331, and kept constantly in the dark for one day. In control experiments (i.e., without AMI‐331), PRR5‐FLAG protein amounts were lower under dark compared to light conditions, due to ZTL‐dependent degradation, as described in previously (Fujiwara et al., 2008; Kiba, Henriques, Sakakibara, & Chua, 2007). […] Since PHA767491 treatment also attenuates degradation of TIMING OF CAB EXPRESSION 1 (TOC1, also called as PRR1) under dark conditions (Uehara et al., 2019), we tested whether AMI‐331 affects TOC1 protein accumulation in vivo. TOC1 amounts were higher in AMI‐331‐treated plants (Figures 3c, S2).

Chain of CKL1 (P42158 whole entry): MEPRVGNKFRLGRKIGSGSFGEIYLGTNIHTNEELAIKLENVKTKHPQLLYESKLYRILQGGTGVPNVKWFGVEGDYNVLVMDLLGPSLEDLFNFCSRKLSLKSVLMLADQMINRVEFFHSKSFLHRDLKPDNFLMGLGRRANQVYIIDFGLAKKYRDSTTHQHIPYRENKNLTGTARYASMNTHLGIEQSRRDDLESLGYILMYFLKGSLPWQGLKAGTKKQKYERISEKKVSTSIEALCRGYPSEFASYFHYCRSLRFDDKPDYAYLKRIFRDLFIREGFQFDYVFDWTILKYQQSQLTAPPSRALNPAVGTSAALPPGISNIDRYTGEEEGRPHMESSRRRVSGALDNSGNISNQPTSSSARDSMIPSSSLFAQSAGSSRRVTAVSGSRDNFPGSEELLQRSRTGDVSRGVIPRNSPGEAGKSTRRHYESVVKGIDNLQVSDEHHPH

`C#CCn1c2c(c(Br)c1-c1ccncc1)C(=O)NCC2.Cl` [AMI‐331] gave a 50% inhibitory concentration (IC50) on CKL1 of 1400 nM. The PRR7 transcript abundance entry is given as “significantly decreased” in the experiment with PRR7 (1 µM); “decreased” in the experiment with PRR7 (5 and 25 µM). The “PRR5‐FLAG protein amount” value in the experiment on PRR5 and TOC1 (35Spro:PRR5‐FLAG seedlings, dark conditions) is “over‐accumulation of PRR5‐FLAG”. Further, the “PRR5‐VP protein amount” value in the experiment on PRR5 and TOC1 (35Spro:PRR5‐VP seedlings, dose‐dependent) is “accumulation of PRR5‐VP”. Moreover, the TOC1 protein amount result in the experiment on PRR5 and TOC1 (35Spro:TOC1‐VP seedlings) is “higher”. In the experiment on PRR5 and TOC1 (in vivo), the “Effective concentration for increasing PRR5 and TOC1, times lower than required for PHA767491” value was 10–50 times. In addition, the “Effective concentrations for PRR5 or TOC1 accumulation” value with PRR5 and TOC1 (seedlings, 24 hr in the dark) was 10 to 50 µM.
